Legend:
Trypanosoma cruzi [1] = assay: microbe, parasite or virus in culture; type: functional, organism-based, Tulahuen LacZ, Clone C4
L6 = assay: (§1) DNDI: Cytotoxicity against L-6 rat myoblasts from skeletal muscle cells; settings: L6 rat skeletal muscle myoblast cells
Trypanosoma cruzi [2] = assay: microbe, parasite or virus in culture; type: functional, Tulahuen LacZ, Clone C4
[3] = as §1; settings: L6 rat skeletal muscle myoblast cells, IC50
[4] = Trypanosoma cruzi, Tulahuen LacZ, Clone C4

| Structure (SMILES) | IC50 (Trypanosoma cruzi [1]; [4]) [nM] | IC50 (L6) [µM] | IC90 (Trypanosoma cruzi [2]; [4]) [nM] | IC50 (Trypanosoma cruzi [1]) [nM] | IC90 (Trypanosoma cruzi [2]) [nM] | IC50 [3] [µM] |
| --- | --- | --- | --- | --- | --- | --- |
| OC(c1ccc(Cl)cc1)(c1ccc(Cl)cc1)c1cccnc1 | 90 | 49 | 27000 |  |  |  |
| Cc1ccc(C(O)(c2ccc(Cl)cc2)c2cccnc2)cc1 (stereo not given) | 17 | 61.2 | 60 |  |  |  |
| OC(c1ccc(Cl)cc1)(c1cccnc1)c1ccc(C(F)(F)F)cc1F (stereo not given) | 21 | 57.4 | 70 |  |  |  |
| O=S(=O)(c1ccccc1)N1CCN(C(c2ccc(Cl)cc2)c2cccnc2)CC1 (stereo not given) | 8.5 | 42.7 | 39 |  |  |  |
| OC(c1ccc(C(F)(F)F)cc1)(c1ccc(C(F)(F)F)cc1)c1cccnc1 | 14.9 | 50.6 | 38 |  |  |  |
| Fc1cc(Cl)ccc1C(c1cncnc1)N1CCN(c2ccccc2)CC1 (stereo not given) | 78 | 62.7 | 270 |  |  |  |
| O=S(=O)(c1ccc(Cl)cc1)N1CCN(C(c2ccc(Cl)cc2)c2cccnc2)CC1 (stereo not given) | 24 | 23 | 97 |  |  |  |
| CC(C)CNC(c1ccc(Cl)cc1)(c1cccnc1)c1ccccc1Cl (stereo not given) | 606 | 59.2 | 1320 |  |  |  |
| CN(C)c1ccc(C(O)(c2ccc(C(F)(F)F)cc2)c2cccnc2)cc1 (stereo not given) | 6 | 59.1 | 28 |  |  |  |
| OC(c1cccnc1)(c1ccc(Cl)cc1F)c1ccc(Cl)cc1F | 16 | 56.3 | 36 |  |  |  |
| Fc1cc(Cl)ccc1C(c1cccnc1)N1CCN(c2ncccn2)CC1 (stereo not given) | 26 | 59 | 92 |  |  |  |
| COc1ccc(C(O)(c2ccc(Cl)cc2)c2cccnc2)cc1 (stereo not given) | 40 | 68.1 | 180 |  |  |  |
| COc1ccccc1N1CCN(C(c2cncnc2)c2ccc(Cl)cc2F)CC1 (stereo not given) | 65 | 59.8 | 190 |  |  |  |
| O=C(C1CCCCC1)N1CCC(NC(c2ccc(C(F)(F)F)cc2)c2cnccn2)CC1 (stereo not given) |  | 92.4 |  | 250 | 860 |  |
| OC(c1ccc(Cl)cc1)(c1ccc(Br)cc1)c1cccnc1 (stereo not given) | 31 | 57 | 79 |  |  |  |
| CC(C)Oc1ccc(C(O)(c2ccc(C(F)(F)F)cc2)c2cccnc2)cc1 (stereo not given) | 3.73 | 47.6 | 7 |  |  |  |
| O=C(c1ccccc1)N1CCN(C(c2ccc(Cl)cc2)c2cccnc2)CC1 (stereo not given) | 68 | 61.4 | 160 |  |  |  |
| CC(C)Oc1ncc(C(O)(c2cccnc2)c2ccc(Cl)cc2F)cn1 (stereo not given) | 7.7 | 89.5 | > 10 |  |  |  |

| Structure (SMILES) | IC50 (Trypanosoma cruzi [1]; [4]) [nM] | IC50 (L6) [µM] | IC90 (Trypanosoma cruzi [2]; [4]) [nM] | IC50 (Trypanosoma cruzi [1]) [nM] | IC90 (Trypanosoma cruzi [2]) [nM] | IC50 [3] [µM] |
| --- | --- | --- | --- | --- | --- | --- |
| COc1ccccc1N1CCN(C(c2ccc(Cl)cc2)c2cccnc2)CC1 (stereo not given) | 20 | 61.1 | 42 |  |  |  |
| CCn1cc(C(NC2CCN(c3ccc(F)c(F)c3)CC2)c2cccnc2)cn1 (stereo not given) | 99 |  | 328 |  |  | 62.3 |
| O=C(Nc1ccccc1)N1CCN(C(c2ccc(Cl)cc2)c2cccnc2)CC1 (stereo not given) | 9 | 67.2 | 34 |  |  |  |
| CC(C)(C)OC(=O)N1CCN(C(c2cccnc2)c2ccc(Cl)cc2F)CC1 (stereo not given) | 20 | 43.5 | 94 |  |  |  |
| CC(C)C(=O)Nc1ncc(C(O)(c2ccc(Cl)cc2)c2cccnc2)s1 (stereo not given) | 17 | 56.6 | 88 |  |  |  |
| OC(c1ccc(Cl)cc1)(c1ccc(Br)cc1)c1cncnc1 (stereo not given) | 144 | 58.7 | 460 |  |  |  |
| CS(=O)(=O)c1ccc(N2CCC(NC(c3cccnc3)c3cnn(CC(F)(F)F)c3)CC2)cc1 (stereo not given) | 4160 |  | > 10000 |  |  | > 100 |
| OC(c1ccc(Cl)cc1)(c1cccnc1)c1cccc(Br)c1 (stereo not given) | 54 | 54.1 | 80 |  |  |  |
| OC(c1ccc(Cl)cc1)(c1ccc(C(F)(F)F)cc1)c1cccnc1 (stereo not given) | 8.2 | 56.4 | 30 |  |  |  |
| O=C(Nc1ccccc1)N1CCN(C(c2cccnc2)c2ccc(Cl)cc2F)CC1 (stereo not given) | 6.2 | 45.1 | 24 |  |  |  |
| OC(c1ccc(Cl)cc1)(c1cccnc1)c1ccccc1Br (stereo not given) | 76 | 55.2 | 172 |  |  |  |
| OC(c1ccc(Br)cc1)(c1ccc(C(F)(F)F)cc1)c1cccnc1 (stereo not given) | 20 | 54.7 | 30 |  |  |  |
| COc1ccccc1N1CCN(C(c2ccc(C(F)(F)F)cc2)c2cnccn2)CC1 (stereo not given) | 240 | 61.7 | 420 |  |  |  |
| COc1ccccc1N1CCN(C(c2ccc(OC(C)C)cc2)c2cccnc2)CC1 (stereo not given) | 28 | 77.5 | 90 |  |  |  |
| O=C(c1ccccc1)N1CCN(C(c2cccnc2)c2ccc(Cl)cc2F)CC1 (stereo not given) | 70 | 68.6 | 220 |  |  |  |
| Clc1ccc(C(c2cccnc2)c2ccccc2Cl)cc1 (stereo not given) | 230 | 62.6 | 2570 |  |  |  |
| CC(C)C(CO)N1CCC(NC(c2ccc(Cl)cc2)c2cccnc2)CC1 (stereo not given) | 62 |  | > 100 |  |  | > 100 |

Source: ChEMBL document CHEMBL1862790, “Optimisation of fenarimol series for the treatment of Chagas disease”
